How the values were obtained:
Type in all cases: cell-based, human
[1] = test system: HepG2 NF-κB/Luc/sr39tk cells; assay: Cytotoxic effect of GCV on HepG2 NF-κB/Luc/sr39tk cells (WST-1 cell survival); conditions: GCV 0.001-500 μM, 96 h
Experimental: HepG2 NF-κB/luc/sr39tk was cultured at 3000 cells/well in 96 well plate format to attach the cells onto the plate, then drug-treated for 48 h with different concentrations of GCV at 0.001, 0.01, 0.1, 1, 50, 100 and 500 μM respectively, and then treated with fresh culture media containing GCV drug, and after 96 h of experiment, the culture media containing GCV drug was removed, then chromogenic reaction was carried out with WST-1 at 37° C. for 2 h, and finally analyzed by enzyme-linked immunosorbent assay (ELISA) at wavelengths of 450 nm and 620 nm respectively and plotted to obtain cell survival rate for calculation of cytotoxic effect of drug.

[2] = test system: HepG2 NF-κB/Luc/sr39tk cells; assay: 131I-FIAU uptake experiment in co-transformed HepG2 NF-κB/Luc/sr39tk cells; conditions: reacted 2 h
Experimental: (§1) This experiment is provided to analyze uptake of 131I-FIAU drug by HepG2 NF-κB/Luc/sr39tk transformed cells. HepG2 NF-κB/Luc/sr39tk transformed cells were cultured overnight in a 6-well plate at 1×10^6 cells/well to attach the cells onto the plate. Then, 1 ml/well of labeled ^131I-FIAU was added into the cells and reacted for 2 h, and then the cells was washed with ice-cold PBS to quench the drug reaction, and detected for radioactivity. FIG. 4 is uptake effect of ^131I-FIAU in HepG2 NF-κB/Luc/sr39tk cell, in which X axis represents different transformed cell line; and Y axis is uptake amount of ^131I-FIAU per 0.1 million cells.

HepG2 cells = assay: 131I-FIAU uptake experiment in HepG2 cells; conditions: reacted 2 h
Experimental: as §1

HepG2 NF-κB/Luc cells = assay: 131I-FIAU uptake experiment in HepG2 NF-κB/Luc cells; conditions: reacted 2 h
Experimental: as §1

SMILES	cytotoxic effect (cell survival rate) compared with control group (HepG2) ([1]; 1—18 cell line)	cytotoxic effect (cell survival rate) compared with control group (HepG2) ([1]; 2—24 cell line)	uptake amount of 131I-FIAU per 0.1 million cells ([2]; 1—17 cell line)	uptake amount of 131I-FIAU per 0.1 million cells ([2]; 1—18 cell line)	uptake amount of 131I-FIAU per 0.1 million cells ([2]; 1—34 cell line)	uptake amount of 131I-FIAU per 0.1 million cells ([2]; 2—24 cell line)	uptake amount of 131I-FIAU per 0.1 million cells ([2]; 2—27 cell line)	uptake efficiency for 131I-FIAU (HepG2 cells)	uptake efficiency for 131I-FIAU (HepG2 NF-κB/Luc cells)
Nc1nc(O)c2ncn(COC(CO)CO)c2n1 [GCV, ganciclovir]	obvious cytotoxic effect	obvious cytotoxic effect							
O=c1[nH]c(=O)n([C@@H]2O[C@H](CO)[C@@H](O)[C@@H]2F)cc1[131I] [131I-FIAU]			20.1±0.41%	41.5±1.00%	27.2±1.07%	22.9±0.68%	12.9±0.45%	very low uptake efficiency	very low uptake efficiency
